Here are results for one molecule from US20260022380A1, “GENETIC MODULATORS OF KRAS PROTEIN EXPRESSION AND THEIR USES” (Northwestern University, priority 2024, published 2026).

Data set [1] relates to GTP-bound KRAS in G12V KRAS expressing HEK293 cells. Put plainly: RAS activation assay (active-KRAS pull-down) in HEK293 cells. Type of data set: cell-based, human. To be noted: 40 μM for 3 days, FIG. 3D. The protocol: (§1) Cells were treated with 40 μM of ELOVL6 inhibitor ELOVL6-IN-2 (MCE, HY-12146) for 3days and collected for protein extraction. RAS activity was assessed utilizing the active Ras pull-down and detection kit (Thermo Fisher Scientific, #16117). In brief, GST-RAF1 RBD and glutathione agarose resin were combined with whole-cell lysates and incubated on a rotator for 1 hour at 4° C. This was followed by three washes and elution with 2× SDS-PAGE loading buffer. The eluted samples were then subjected to western blotting to detect GTP-RAS.

The test system of data set [2] is mCherry-G12V KRAS expressing HT29 cells. Put plainly: mCherry-tagged G12V KRAS protein level after ELOVL6i treatment. Format: cell-based, human. To be noted: FIGS. 11A and 11B. The protocol: To label intracellular markers, live cells were fixed with 4% paraformaldehyde (Fisher Scientific, #AA47377-9M) for 20 minutes, washed with PBS, permeabilized with 0.2% Triton X-100 (Sigma, X100-100ML) for 10 minutes, blocked with PBS with 2% BSA (flow buffer) for 30 minutes then stained with the antibodies prepared in flow buffer. Cells were incubated with primary antibodies for 1-hour at room temperature. Primary antibodies used were: anti-KRAS (Proteintech, #12063-1-AP), anti-phospho-ERK (Thr202/Tyr204) (Cell Signaling Technology, #4370S), and anti-ERK (Cell Signaling Technology, #4695S). After wash with flow buffer, cells were incubated with secondary antibodies for 30 minutes. […] Stained samples and the isotype control were analyzed immediately by flow cytometers. Data were analyzed using the FlowJo software. MFI was defined as median fluorescence across the cell population.
HT29 and SW480 cells were transduced with mCherry-WT-KRAS (Addgene, #153335) or mCherry-G12V-KRAS (Addgene, #153336) plasmid for stable mCherry-KRAS expression. […] Images were analyzed by Fiji Image J. The mean fluorescence intensity of mCherry-KRAS was normalized to the time zero measurement of each FOV to generate relative mCherry-KRAS expression across the experiment's timespan. […]

Data set [3] concerns GTP-bound KRAS in cancer cell lines harboring G12V or G12D KRAS. Put plainly: RAS activation assay (active-KRAS pull-down) in mutant KRAS cancer cell lines. Format: cell-based, human. The note with it: multiple cancer cell lines harboring G12V or G12D KRAS, 40 μM for 3 days, FIGS. 3E-3G. The protocol: as §1
The next data set concerns mCherry-G12V KRAS. Put plainly: Live-cell imaging of mCherry-KRAS and plasma membrane co-localization. Type of data set: cell-based, human. The note with it: 40 μM, FIGS. 2H-2K. How it is done: HT29 and SW480 cells were transduced with mCherry-WT-KRAS (Addgene, #153335) or mCherry-G12V-KRAS (Addgene, #153336) plasmid for stable mCherry-KRAS expression. Cells were seeded onto 35 mm glass bottom dish (Fisher Scientific, #NC0794151). ELOVL6 inhibitor was added at 40 μM prior to imaging. Cells were stained with CellBrite™ Steady 488 membrane dye (Biotium, #30106 T) for 30 minutes. Live cells were imaged using Nikon W1 dual cam spinning disk confocal with TIRF and a 100× objective. Five random fields of view (FOV) were selected, and an image/FOV was taken every 15 minutes for a duration of 20 hours. Images were analyzed by Fiji Image J. The mean fluorescence intensity of mCherry-KRAS was normalized to the time zero measurement of each FOV to generate relative mCherry-KRAS expression across the experiment's timespan. The Pearson's coefficient plugin JACop from ImageJ was used for quantification co-localization between mCherry-KRAS and cell membrane dye.

The test system of data set [4] is cellular lipid composition (ELOVL6 fatty acid elongation). Put plainly: Lipidomic analysis (targeted fatty acids and shotgun lipidomics) of ELOVL6i treated cells. Type of data set: cell-based. The note with it: 40 μM for 1-week. The protocol: Cells were treated with ELOVL6 inhibitor at 40 μM for 1-week. Cell pellets were stored at −80° C. until sent for lipidomic analysis. Mass spectrometry-based shotgun untargeted lipid analysis and targeted fatty acids analysis were conducted by Lipotype (Dresden, Germany). Lipids were extracted using chloroform and methanol procedure as previously described (38). Samples were analyzed by automated direct infusion and orbitrap mass spectrometry. LipotypeXplorer was used for identification of lipids in the raw mass spectra (39). Alterations in lipid composition were determined based on mol % of total lipid normalized to untreated control samples.

The test system of data set [5] is G12V or G12D KRAS cell lines. Put plainly: Lipid add-back cell viability experiment. Format: cell-based. The note with it: 200 μM oleic acid or 20 μM stearic acid supplemented medium, FIGS. 5G and 19. How it is done: (§2) The cells were seeded in triplicates in 96-well plates at a density of 5,000-10,000 cells per well and treated with the indicated concentrations of ELOVL6 inhibitor. Assay plates were subjected to daily media exchange with fresh ELOVL6 inhibitor. Following treatment, cell viability was assessed after a period of 1-week treatment using the CellTiter-Glo Luminescent Cell Viability Assay (Promega, #G7571) with luminescence readings taken on a Cytation™ 3 cell imaging multi-mode reader (Fisher Scientific). The background value was indicated by cell medium without cells and was subtracted from the raw data. The fold change in cell viability was determined relative to control cells that received no treatment.
For the lipid-addback experiment, cells were treated with the indicated concentrations of ELOVL6 inhibitor in 200 μM of oleic acid (Sigma, #O1383-1G) or 20 μM of stearic acid (Sigma, #S4751-1G) supplemented medium.

The next data set deals with G12V KRAS in SW480 cells. Put plainly: KRAS protein expression after ELOVL6i treatment at different concentrations (immunoblot). To be noted: FIG. 2G. Type of data set: cell-based, human. The protocol:
Whole-cell extracts were prepared using RIPA buffer (Sigma, #R0278) supplemented with protease and phosphatase inhibitor cocktail (Thermo Fisher Scientific, #78442) on ice for 20 minutes. Subsequently, the lysates were centrifuged at 10,000 g for 20 minutes, and the protein concentration was determined using the BCA assay (Thermo Fisher Scientific, #A55864). The proteins were separated on 4-15% precast protein gels (Bio-Rad, #4568084) in 1×-Tris-Glycine-SDS buffer (Bio-Rad, #1610772) at a constant voltage of 100V and transferred onto nitrocellulose membrane (Bio-Rad, #1620115) using 1× Tris-Glycine Buffer (Bio-Rad, 1610734) at 100V for 1 hour. Following transfer, membrane was blocked in 5% skim milk for 1 hour, then incubated at 4° C. with primary antibodies. Detection was performed using horseradish peroxidase (HRP)-conjugated secondary antibodies. Blots were visualized with chemiluminescent substrate (Thermo Fisher Scientific, #34580) using Azure imaging system. Immunoblots were quantified using ImageJ.
Background: A western blot detects proteins with antibodies after separation by electrophoresis.

Data set [6] relates to human cell lines harboring KRAS mutations (colorectal, lung, pancreatic cancers). Put plainly: Cell viability assay (CellTiter-Glo, 7-day ELOVL6i treatment) across a cell line panel. Type of data set: cell-based. How it is done: as §2
On the technique in general: In ATP-based viability assays light output follows the ATP content of the culture.

Another data set relates to SW403 xenograft. Nature of the data set: SW403 G12V KRAS mutant xenograft study. Type of data set: in vivo. The protocol:
To establish cell-line-derived xenograft models, 5 million cells (SW403 and NCI-H441) suspended in PBS were subcutaneously injected to the right flanks of 8-week-old female athymic nude (nu/nu) mice purchased from the Jackson Laboratory. Once tumor reached approximately 50 mm3 volume, mice were randomized into groups (n=10) and treated with vehicle control (corn oil) or ELOVL6 inhibitor (dissolved in corn oil) dosed at 300 mg/kg. Treatment was administered twice daily by oral gavage. Tumor growth was measured 2-3 times per week using a caliper. Tumors were collected at the indicated timepoint and at the endpoint for analysis. For KRAS downstream signaling analysis, tumors were dissociated into single cells for flow cytometry analysis and protein was extract for western blotting.
Tumor specimens were fixed in 10% formalin for at least 24 hours. Then washed with PBS and stored in 70% ethanol until paraffin embedding. Slides were stained using Dako Autostainer Plus. The following antibodies were used for staining: KRAS (Proteintech, #12063-1-AP), Ki-67 (Abcam, Ab15580), phospho-ERK (Cell Signaling Technology, #4370S), and ERK (Cell Signaling Technology, #4695s). Slides were then incubated with HRP labelled polymer anti-rabbit antibody (Agilent, K4003). All slides were […] through xylene and alcohol, them mounted, and cover slipped. Slides were scanned at 20× using a Nano Zoomer 2.0 HT (Hamamatsu Photonics).

The mark [7] stands for this setting: targeted lipidomic analysis, versus vehicle-treated controls, FIGS. 5A and 16.

In the case of `Cc1[nH]n(-c2ccc(OC(F)(F)F)cc2)c(=O)c1C1(C(F)(F)F)C(=O)N(c2ccccc2)C2=C1C(=O)CC(C)(C)C2` (centres unmarked) [ELOVL6i], the “GTP-bound KRAS” value in data set [1] was “significantly reduced”. Moreover, the “lowering of mCherry-G12V KRAS” value in [2] is on record as “dose-dependent effects”. In [3], the “cellular GTP-bound KRAS” value is “consistently reduced”. In the data set on mCherry-G12V KRAS, the “mCherry-G12V KRAS co-localization with cell membrane” value was “Significant reductions” and the “mCherry-G12V KRAS fluorescence intensity” value is “Significant reductions”. Also, in data set [4] (ELOVL6i treated cells), the “long-chain PUFA” value is on record as “increases”. In data set [4] (shotgun lipidomic analysis, FIG. 5C), the “sphingolipids, including sphingomyelin (SM) and Hexosyl-Ceramide (HexCer)” value is “significant reduction”. Moreover, in data set [4] (shotgun lipidomic analysis, FIG. 5E), the “levels of PtdSer” value was “significantly altered”. In data set [4] (shotgun lipidomic analysis, FIGS. 5B and 18A), the “glycerolipid abundance, including diacylglycerol (DAG) and triacylglycerol (TAG)” value was “Notable increases”. Besides, in data set [4] (setting [7]), the levels of oleate result is “significant reduction” and the levels of stearate result is “significant reduction”. The “cell viability with exogenous oleic acid or stearic acid supplementation during ELOVL6i treatment” value in data set [5] is “enhanced cell viability”. Also, in the data set on G12V KRAS in SW480 cells, the “effect on G12V KRAS protein level” value was “concentration-dependent effect”. In data set [6] (7-day treatment, FIGS. 4G-4I and 14), the “sensitivity of mutant KRAS-expressing cells versus WT KRAS expressing cells” value was “more sensitive”. Besides, in [6] (G12V, G12D, G13D, G12C, G12R, Q61X, A146T cell lines, 7-day treatment, FIG. 4F), the “cell viability across KRAS variants” value is reported as “impacted cell viability across all KRAS variants tested”. Further, the “sensitivity of pancreatic cancer cell lines (antiproliferative effect)” value in [6] (panel of human KRAS mutant cell lines) is listed as “especially sensitive”. Further, in the data set on SW403 xenograft (SW403 tumor samples, FIG. 4E), the “ERK phosphorylation (immunohistochemistry)” value is recorded as “significant decrease”, the “expression of mutant KRAS (immunohistochemistry)” value is “significant decrease” and the “ki-67 proliferation marker (immunohistochemistry)” value is reported as “significant decrease”. The “ERK phosphorylation in tumor samples” value with SW403 xenograft (SW403 tumors, western blot and flow cytometry after 3-day, 1-week, 3-week treatment, FIGS. 13B-13D) is given as “time-dependent reduction”. Besides, in the data set on SW403 xenograft (SW403 xenograft, oral, 300 mg/kg, FIG. 4D), the survival entry is listed as “prolonged survival”. For the same molecule, the tumor growth rate result in the data set on SW403 xenograft (SW403 xenograft, oral, 300 mg/kg, FIGS. 4B-4D) is “significant reduction”. In addition, the tolerability entry in the data set on SW403 xenograft (mice bearing SW403 xenograft, oral, 300 mg/kg, FIG. 13A) is reported as “well tolerated”.
